The results in this text go back to patent US20200239530A1, “COMPOUNDS AND METHODS OF MODULATING PROTEIN DEGRADATION” (Vividion Therapeutics, Inc., priority 2017, published 2020).

Common to all, as to test: Cysteine liganding, probe competition
Assay type in all cases: binding

Assay [1] deals with T1, BACH2 Transcription regulator protein BACH2 (Homo sapiens, UniProt Q9BYV9).
T1 construct: Cells were resuspended in cold PBS on ice and sonicated with a probe sonicator to achieve lysis; endogenous in cells
In short, it runs like this: (§1)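 Steps: sonicate cells in cold PBS; treat 5 mg/ml lysate with compound (25° C, 1 hr); add desthiobiotin iodoacetamide probe from a 10 mM stock (25° C, 1 hr); precipitate, reduce, alkylate, digest with trypsin; capture labelled peptides on streptavidin for analysis.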

In assay [2] the target is T2, HADHB Trifunctional enzyme subunit beta, mitochondrial (Homo sapiens, UniProt P55084).
T2 construct: Cells were resuspended in cold PBS on ice and sonicated with a probe sonicator to achieve lysis; endogenous in cells
In short, it runs like this:
as §1

The target of assay [3] is T3, MAPK10 Mitogen-activated protein kinase 10 (Homo sapiens, UniProt P53779).
T3 construct: Cells were resuspended in cold PBS on ice and sonicated with a probe sonicator to achieve lysis; endogenous in cells
The note with it: for 100 Max / 100 ave / 500 ave / 500 Max: uniprot P53779; for 500 Max: in % (unit assumed). In short, it runs like this:
as §1

In assay [4] the target is T4, PIAS4 E3 SUMO-protein ligase PIAS4 (Homo sapiens, UniProt Q8N2W9).
T4 construct: Cells were resuspended in cold PBS on ice and sonicated with a probe sonicator to achieve lysis; endogenous in cells
T4 sequence (Q8N2W9 1-510): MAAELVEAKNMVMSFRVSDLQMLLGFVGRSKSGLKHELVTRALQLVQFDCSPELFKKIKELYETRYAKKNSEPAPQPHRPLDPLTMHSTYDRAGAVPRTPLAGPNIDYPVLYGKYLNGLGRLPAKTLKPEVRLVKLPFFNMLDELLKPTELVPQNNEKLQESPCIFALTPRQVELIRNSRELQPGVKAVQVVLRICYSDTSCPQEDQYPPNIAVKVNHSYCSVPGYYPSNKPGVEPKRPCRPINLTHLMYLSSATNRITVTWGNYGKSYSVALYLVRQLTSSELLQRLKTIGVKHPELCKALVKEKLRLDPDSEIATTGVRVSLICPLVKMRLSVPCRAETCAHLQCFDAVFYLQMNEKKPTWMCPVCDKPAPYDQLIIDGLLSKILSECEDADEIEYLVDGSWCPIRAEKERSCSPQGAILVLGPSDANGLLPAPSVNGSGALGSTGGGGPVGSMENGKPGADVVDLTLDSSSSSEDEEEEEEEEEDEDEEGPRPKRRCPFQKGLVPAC
The note with it: for Liganded: PIAS4 Res# 326, uniprot Q8N2W9. Summed up: as §1

The target of assay [5] is T5, RNF214 RING finger protein 214 (Homo sapiens, UniProt Q8ND24).
T5 construct: Cells were resuspended in cold PBS on ice and sonicated with a probe sonicator to achieve lysis; endogenous in cells
The settings on record: for Liganded: RNF214 Res# 655, uniprot Q8ND24. In short, it runs like this: as §1

For assay [6], the target named is T6, RPUSD3 RNA pseudouridylate synthase domain-containing pro (Homo sapiens, UniProt Q6P087).
T6 construct: Cells were resuspended in cold PBS on ice and sonicated with a probe sonicator to achieve lysis; endogenous in cells
T6 sequence (Q6P087 26-351): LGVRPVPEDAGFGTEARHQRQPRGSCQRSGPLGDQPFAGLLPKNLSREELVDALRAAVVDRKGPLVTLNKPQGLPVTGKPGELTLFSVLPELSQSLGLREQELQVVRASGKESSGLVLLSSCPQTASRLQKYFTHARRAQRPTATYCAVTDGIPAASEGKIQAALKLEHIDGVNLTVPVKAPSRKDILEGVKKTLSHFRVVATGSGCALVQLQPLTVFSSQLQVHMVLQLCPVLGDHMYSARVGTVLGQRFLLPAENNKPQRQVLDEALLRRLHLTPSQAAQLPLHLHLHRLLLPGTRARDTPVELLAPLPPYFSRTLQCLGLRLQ
Summed up: as §1

T2 sequence (P55084 34-474): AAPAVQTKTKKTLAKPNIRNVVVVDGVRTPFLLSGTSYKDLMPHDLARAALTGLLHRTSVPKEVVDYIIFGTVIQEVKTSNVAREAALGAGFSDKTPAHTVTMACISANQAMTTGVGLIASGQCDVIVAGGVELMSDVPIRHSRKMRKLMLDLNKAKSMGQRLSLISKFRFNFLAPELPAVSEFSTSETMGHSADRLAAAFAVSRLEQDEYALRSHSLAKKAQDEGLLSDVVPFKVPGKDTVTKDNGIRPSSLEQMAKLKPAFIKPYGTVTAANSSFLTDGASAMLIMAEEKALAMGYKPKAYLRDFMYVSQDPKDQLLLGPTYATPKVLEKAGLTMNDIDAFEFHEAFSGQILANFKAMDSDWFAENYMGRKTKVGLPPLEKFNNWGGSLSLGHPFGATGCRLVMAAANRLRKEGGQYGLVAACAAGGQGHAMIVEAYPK
T2 sequence (P40939 37-763 partner): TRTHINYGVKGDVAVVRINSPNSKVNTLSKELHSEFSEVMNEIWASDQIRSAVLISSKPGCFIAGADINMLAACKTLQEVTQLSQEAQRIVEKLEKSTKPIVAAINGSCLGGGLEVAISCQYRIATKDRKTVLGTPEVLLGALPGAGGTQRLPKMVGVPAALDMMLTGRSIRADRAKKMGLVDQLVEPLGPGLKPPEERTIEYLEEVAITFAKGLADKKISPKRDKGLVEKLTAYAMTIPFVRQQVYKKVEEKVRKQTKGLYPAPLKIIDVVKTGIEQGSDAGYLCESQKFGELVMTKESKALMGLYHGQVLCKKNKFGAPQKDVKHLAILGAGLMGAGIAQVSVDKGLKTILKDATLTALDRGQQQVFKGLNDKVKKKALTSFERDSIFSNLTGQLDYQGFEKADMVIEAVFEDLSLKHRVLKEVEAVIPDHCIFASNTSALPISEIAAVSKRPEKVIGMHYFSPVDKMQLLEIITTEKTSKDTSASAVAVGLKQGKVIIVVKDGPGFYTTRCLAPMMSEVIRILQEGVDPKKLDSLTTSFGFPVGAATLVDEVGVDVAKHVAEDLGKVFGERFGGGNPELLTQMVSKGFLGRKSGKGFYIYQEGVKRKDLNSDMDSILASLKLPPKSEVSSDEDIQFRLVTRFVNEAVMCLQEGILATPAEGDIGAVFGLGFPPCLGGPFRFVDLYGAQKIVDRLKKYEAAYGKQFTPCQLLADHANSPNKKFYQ
T3 sequence (P53779 whole entry): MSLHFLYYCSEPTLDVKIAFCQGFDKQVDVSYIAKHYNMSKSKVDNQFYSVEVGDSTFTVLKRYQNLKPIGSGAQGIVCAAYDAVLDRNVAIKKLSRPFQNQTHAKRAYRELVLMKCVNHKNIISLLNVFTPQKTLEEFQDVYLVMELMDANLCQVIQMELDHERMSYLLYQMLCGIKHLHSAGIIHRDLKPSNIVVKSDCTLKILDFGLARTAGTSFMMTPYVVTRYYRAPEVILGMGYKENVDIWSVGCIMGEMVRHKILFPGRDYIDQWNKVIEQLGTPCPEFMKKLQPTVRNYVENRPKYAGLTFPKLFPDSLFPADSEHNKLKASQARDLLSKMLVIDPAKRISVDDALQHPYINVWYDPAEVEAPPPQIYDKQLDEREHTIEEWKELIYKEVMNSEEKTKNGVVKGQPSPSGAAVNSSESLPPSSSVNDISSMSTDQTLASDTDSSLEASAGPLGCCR
T5 sequence (Q8ND24 whole entry): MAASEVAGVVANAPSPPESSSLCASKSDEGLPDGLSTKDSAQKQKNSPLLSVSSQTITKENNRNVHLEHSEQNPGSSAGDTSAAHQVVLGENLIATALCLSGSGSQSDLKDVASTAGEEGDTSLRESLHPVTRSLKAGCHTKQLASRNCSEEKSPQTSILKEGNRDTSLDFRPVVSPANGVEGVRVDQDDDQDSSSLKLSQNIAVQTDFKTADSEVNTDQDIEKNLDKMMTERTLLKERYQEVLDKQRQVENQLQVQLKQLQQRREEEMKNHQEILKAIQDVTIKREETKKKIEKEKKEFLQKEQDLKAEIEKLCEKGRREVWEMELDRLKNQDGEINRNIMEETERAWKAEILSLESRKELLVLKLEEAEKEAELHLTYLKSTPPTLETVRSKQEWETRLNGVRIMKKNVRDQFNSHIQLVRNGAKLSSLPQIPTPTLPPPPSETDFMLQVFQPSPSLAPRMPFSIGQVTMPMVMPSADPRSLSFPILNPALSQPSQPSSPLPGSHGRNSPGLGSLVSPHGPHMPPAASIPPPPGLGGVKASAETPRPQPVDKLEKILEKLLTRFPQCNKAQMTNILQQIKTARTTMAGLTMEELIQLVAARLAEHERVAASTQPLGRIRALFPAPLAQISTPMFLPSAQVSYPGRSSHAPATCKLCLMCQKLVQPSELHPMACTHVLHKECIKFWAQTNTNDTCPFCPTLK
T1 sequence (Q9BYV9 whole entry): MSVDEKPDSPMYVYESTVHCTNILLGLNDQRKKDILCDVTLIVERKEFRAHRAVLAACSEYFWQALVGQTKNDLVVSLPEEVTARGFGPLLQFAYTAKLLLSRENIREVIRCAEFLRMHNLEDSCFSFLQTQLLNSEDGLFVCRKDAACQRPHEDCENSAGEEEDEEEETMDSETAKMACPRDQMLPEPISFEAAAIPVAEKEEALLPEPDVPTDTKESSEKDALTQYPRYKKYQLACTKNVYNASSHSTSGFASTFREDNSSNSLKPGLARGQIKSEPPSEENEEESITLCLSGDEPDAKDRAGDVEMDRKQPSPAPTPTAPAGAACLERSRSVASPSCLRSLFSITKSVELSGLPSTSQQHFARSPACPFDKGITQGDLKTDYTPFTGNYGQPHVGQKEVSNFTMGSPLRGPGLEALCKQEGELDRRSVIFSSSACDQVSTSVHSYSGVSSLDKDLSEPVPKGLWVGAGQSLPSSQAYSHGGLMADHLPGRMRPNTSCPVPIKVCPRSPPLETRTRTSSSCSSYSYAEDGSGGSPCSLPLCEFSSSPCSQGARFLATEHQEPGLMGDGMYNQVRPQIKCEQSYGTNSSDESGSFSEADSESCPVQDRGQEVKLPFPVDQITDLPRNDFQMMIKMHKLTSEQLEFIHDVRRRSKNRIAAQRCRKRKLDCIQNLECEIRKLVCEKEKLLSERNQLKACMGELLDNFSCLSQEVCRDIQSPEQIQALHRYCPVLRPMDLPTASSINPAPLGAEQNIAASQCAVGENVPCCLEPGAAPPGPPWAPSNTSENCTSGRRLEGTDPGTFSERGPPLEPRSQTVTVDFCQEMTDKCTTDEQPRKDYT

In the case of `COc1ccc2c(c1)CCCN2C(=O)CCl` [KB02], the Liganded entry is given as “YES” in assay [1] (BACH2 Res# 370, uniprot Q9BYV9); “YES” in assay [2] (HADHB Res# 458, uniprot P55084); “YES” in assay [3] (MAPK10 Res# 283, uniprot P53779); “YES” in assay [4]; “YES” in assay [5]; “YES” in assay [6] (RPUSD3 Res# 147, uniprot Q6P087). Besides, in assay [3], the “100 Max” value was 44.42. Also, the 100 ave in assay [3] stood at 26.11. Further, the 500 ave in assay [3] turned out to be 76.89. Moreover, the “500 Max” value in assay [3] was found to be 78.63.
In the case of `O=C(CCl)Nc1cc(C(F)(F)F)cc(C(F)(F)F)c1` [KBO3], the “100 Max” value is 25.4 in assay [1] (uniprot Q9BYV9); 26.24 in assay [2] (uniprot P55084); 17.22 in assay [3]; 35.5 in assay [4] (uniprot Q8N2W9); 35.5% in assay [5] (uniprot Q8ND24, unit assumed); 14.63 in assay [6] (uniprot Q6P087). Further, the 100 ave in assay [1] (uniprot Q9BYV9) was found to be 17.2; in assay [2] (uniprot P55084), 15.245; in assay [3] it was 12.33; in assay [4] (uniprot Q8N2W9) it was 30.1; in assay [5] (uniprot Q8ND24), 24.8; in assay [6] (uniprot Q6P087) it was 9.07. Further, the 500 ave in assay [1] (uniprot Q9BYV9) stood at 62.8; in assay [2] (uniprot P55084) it was 60.9; in assay [3], 40.875; in assay [4] (uniprot Q8N2W9), 75.4; in assay [5] (uniprot Q8ND24), 65.9; in assay [6] (uniprot Q6P087), 49.47. The 500 Max in assay [1] (uniprot Q9BYV9, unit assumed) was 62.8%; in assay [2] (uniprot P55084) it was 64.33; in assay [3], 44.06; in assay [4] (uniprot Q8N2W9) it was 87.0; in assay [5] (uniprot Q8ND24), 96.4; in assay [6] (uniprot Q6P087), 49.47. Also, the Liganded entry in assay [4] and in assay [5] was “YES” throughout. In assay [4] (UniProt Q8N2W9, 100 uM), the “KB03_100 uM_percent_inhibition” value stood at 80%.
